For this test, the system named is yeast cells. The test is described as follows: EMS mutagenesis of yeast cells (kill rate). The format is cell-based. To be noted: 3 μL EMS in 200 μL cell suspension (OD600 around 10), approximately one hour. Here is the method:
For example, yeast cells from a fresh YP (yeast extract/peptone)+20 g/L glucose plate or liquid culture (OD600 1-4) are resuspended in sterile water to an OD600 of around 10. 200 μL aliquots of this cell suspension are pipetted into individual tubes and exposed to 3 μL […] (EMS) for approximately one hour, which kills around 65% of the cells. Higher EMS concentrations can also be used to increase the kill rate. After exposure, cells are neutralized with 5% sodium thiosulfate, washed in PBS buffer, recovered in rich media for approximately four hours, and cultured on selective media. Mock samples (no EMS) are also run to ensure that the conditions are selective. Alternatively, cells can be mutagenized using UV irradiation.

Consider `CCOS(C)(=O)=O` [ethane methyl sulfonate (EMS), ethane methyl sulfonate], for which the cells killed entry is “around 65%”.

These data come from US12054721B2, “Compositions and methods for 3-hydroxypropionic acid production” (CARGILL, INCORPORATED, priority 2010, dated 2024).
